Where a name gives a salt, the structure may show the parent alone. Read-outs that look alike come from different tables or passages of the source.

One test has as its target MMP-9 (Homo sapiens, UniProt P14780). Kind of test: MMP-9 inhibition (thiopeptide or fluorescent peptide substrate). It counts as biochemical.
The target in the next test is TACE (Homo sapiens, UniProt P78536). Kind of test: TACE inhibition (fluorescent peptidyl substrate). In kind it is biochemical. The note with it: for inhibition at 1 µM: read-out: TACE % inhibition.
Sequence of TACE (P78536 215-824): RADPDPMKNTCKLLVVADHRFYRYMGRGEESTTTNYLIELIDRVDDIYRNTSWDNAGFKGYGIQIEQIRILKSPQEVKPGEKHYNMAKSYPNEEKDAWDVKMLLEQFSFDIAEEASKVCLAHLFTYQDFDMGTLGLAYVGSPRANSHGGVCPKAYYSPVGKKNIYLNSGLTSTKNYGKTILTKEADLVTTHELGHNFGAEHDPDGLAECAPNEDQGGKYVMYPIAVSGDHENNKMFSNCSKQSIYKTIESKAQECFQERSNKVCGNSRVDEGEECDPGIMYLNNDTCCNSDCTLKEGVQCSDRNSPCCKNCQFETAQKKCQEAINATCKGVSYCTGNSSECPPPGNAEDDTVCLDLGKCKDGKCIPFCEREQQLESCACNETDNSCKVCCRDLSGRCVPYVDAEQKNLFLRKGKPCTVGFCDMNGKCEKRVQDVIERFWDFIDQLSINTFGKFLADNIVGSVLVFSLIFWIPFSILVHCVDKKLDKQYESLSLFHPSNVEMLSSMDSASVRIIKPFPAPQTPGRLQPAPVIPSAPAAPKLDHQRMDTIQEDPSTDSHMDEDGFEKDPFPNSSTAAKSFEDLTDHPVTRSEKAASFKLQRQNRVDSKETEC
For the next test, the target named is MMP-13 (Homo sapiens, UniProt P45452). Nature of the test: MMP-13 inhibition (thiopeptide or fluorescent peptide substrate). In kind it is biochemical.
Another test has as its target T1, MMP-1 (Homo sapiens, UniProt P03956).
T1 sequence (P03956 100-469): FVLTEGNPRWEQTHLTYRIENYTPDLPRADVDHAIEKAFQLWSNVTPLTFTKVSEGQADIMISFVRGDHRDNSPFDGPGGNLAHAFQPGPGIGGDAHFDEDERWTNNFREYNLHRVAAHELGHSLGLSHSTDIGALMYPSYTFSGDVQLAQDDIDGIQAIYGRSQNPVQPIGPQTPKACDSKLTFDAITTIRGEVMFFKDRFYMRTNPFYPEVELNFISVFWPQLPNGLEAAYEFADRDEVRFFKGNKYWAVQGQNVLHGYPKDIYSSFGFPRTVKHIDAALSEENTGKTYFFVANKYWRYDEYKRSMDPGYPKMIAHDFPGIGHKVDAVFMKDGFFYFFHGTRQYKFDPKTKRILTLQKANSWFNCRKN
Nature of the test: biochemical. The note with it: MMP-1 IC50.

Sequence of MMP-9 (P14780 94-707): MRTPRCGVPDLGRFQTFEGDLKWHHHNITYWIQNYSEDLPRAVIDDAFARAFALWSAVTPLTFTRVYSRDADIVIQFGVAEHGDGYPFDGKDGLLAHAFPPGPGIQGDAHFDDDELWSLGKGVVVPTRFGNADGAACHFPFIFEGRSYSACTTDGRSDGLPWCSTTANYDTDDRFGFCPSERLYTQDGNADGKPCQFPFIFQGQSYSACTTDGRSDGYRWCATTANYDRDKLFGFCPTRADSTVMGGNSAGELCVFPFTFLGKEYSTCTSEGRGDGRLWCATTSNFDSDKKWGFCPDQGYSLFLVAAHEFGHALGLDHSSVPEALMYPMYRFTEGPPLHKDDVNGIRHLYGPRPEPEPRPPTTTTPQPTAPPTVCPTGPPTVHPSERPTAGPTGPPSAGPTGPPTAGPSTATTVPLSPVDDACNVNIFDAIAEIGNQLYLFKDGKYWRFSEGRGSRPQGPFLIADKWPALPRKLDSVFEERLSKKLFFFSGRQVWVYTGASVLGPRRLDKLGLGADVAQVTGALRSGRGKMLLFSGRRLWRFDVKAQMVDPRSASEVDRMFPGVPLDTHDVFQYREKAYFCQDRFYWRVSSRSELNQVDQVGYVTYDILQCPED
Protocol for MMP-13: (§1) The enzyme activity is measured by the rate of the color increase. The thiopeptide substrate is made up fresh as a 20 mM stock in 100% DMSO and the DTNB is dissolved in 100% DMSO as a 100 mM stock and stored in the dark at room temperature. Both the substrate and DTNB are diluted together to 1 mM with substrate buffer (50 mM HEPES pH 7.5, 5 mM CaCl2) before use. The stock of enzyme is diluted with buffer (50 mM HEPES, pH 7.5, 5 mM CaCl2, 0.02% Brij) to the desired final concentration.
(§2) Alternatively, a fluorescent peptide substrate is used. In this test procedure, the peptide substrate contains a fluorescent group and a quenching group. Upon cleavage of the substrate by an MMP, the fluorescence that is generated is quantitated on the fluorescence plate reader. The assay is run in HCBC assay buffer (50 mM HEPES, pH 7.0, 5 mM Ca^+2, 0.02% Brij, 0.5% Cysteine), with human recombinant MMP-1, MMP-9, or MMP-13. The substrate is dissolved in methanol and stored frozen in 1 mM aliquots. For the assay, substrate and enzymes are diluted in HCBC buffer to the desired concentrations. Compounds are added to the 96 well plate containing enzyme and the reaction is started by the addition of substrate.
(§3) For either the thiopeptide or fluorescent peptide test procedures, the slope of the line is calculated and represents the reaction rate. The linearity of the reaction rate is confirmed (r^2>0.85). The mean (x±sem) of the control rate is calculated and compared for statistical significance (p<0.05) with drug-treated rates using Dunnett's multiple comparison test.
Protocol for MMP-9: as §1, §2, §3
Protocol for TACE: Using 96-well black microtiter plates, each well receives a solution composed of 10 μL TACE (final concentration 1 μg/mL), 70 μL Tris buffer, pH 7.4 containing 10% glycerol (final concentration 10 mM), and 10 μL of test compound solution in DMSO (final concentration 1 μl M, DMSO concentration <1%) and incubated for 10 minutes at room temperature.
The reaction is read (excitation 340 nm, emission 420 nm) for 10 min. and the increase in fluorescence over time is plotted as a linear line. The slope of the line is calculated and represents the reaction rate.
The linearity of the reaction rate is confirmed (r^2>0.85). The mean (x±sem) of the control rate is calculated and compared for statistical significance (p<0.05) with drug-treated rates using Dunnett's multiple comparison test.

One may read the IC50 as the concentration at which inhibition is half-maximal. The term inhibition denotes the share of the control response that was lost under treatment. On to `Cc1nn(C)c2ncc(C(=O)NO)c(N(C)S(=O)(=O)c3ccc(Oc4ccncc4)cc3)c12` [91(HC1), 4-{Methyl-[4-(4-pyridinyloxy)benzenesulfonyl]amino}-1,3-dimethyl-1H-pyrazolo[3,4-b]pyridine-5-carboxylic Acid, Hydroxyamide], for which the IC50 against MMP-9 (MMP-9 IC50) was 1.8 nM. Besides, the inhibition at 1 µM on TACE amounted to 38.7%.

As for `COc1ccc(S(=O)(=O)N(Cc2ccccc2)c2c(C(=O)NO)cnc3cc(C(F)(F)F)ccc23)cc1` [Example 11, 4-[Benzyl-(4-methoxy-benzenesulfonyl)-amino]-7-trifluoromethyl-quinoline-3-carboxylic acid hydroxyamide], the IC50 against MMP-13 was 7 nM; at MMP-9 (read-out: MMP-9 IC50) it was 11 nM; against TACE, > 1000 nM.

Consider `COc1ccc(S(=O)(=O)N(Cc2ccccc2)c2c(C(=O)NO)cnc3c(C(F)(F)F)cccc23)cc1` [Example 12, 4-[Benzyl-(4-methoxy-benzenesulfonyl)-amino]-8-trifluoromethyl-quinoline-3-carboxylic acid hydroxyamide], for which the IC50 on MMP-13 was found to be 1 nM; at MMP-9 (read-out: MMP-9 IC50), 2 nM; at TACE it was 190 nM; at MMP-1 it was 933 nM.

Turning to `COc1ccc(S(=O)(=O)N(Cc2ccccc2)c2c(C(=O)NO)cnc3ccc(Br)cc23)cc1` [Example 13, 4-[Benzyl-(4-methoxy-benzenesulfonyl)-amino]-6-bromo-quinoline-3-carboxylic acid hydroxyamide], the IC50 at MMP-13 stood at 9 nM; at MMP-9 (read-out: MMP-9 IC50) it was 15 nM; on MMP-1, 82 nM. Besides, the inhibition at 1 µM on TACE (at 1 μM concentration) turned out to be 3%.

As to `COc1ccc(S(=O)(=O)N(Cc2ccccc2)c2c(C(=O)NO)cnc3cc(Br)ccc23)cc1` [Example 14, 4-[Benzyl-(4-methoxy-benzenesulfonyl)-amino]-7-bromo-quinoline-3-carboxylic acid hydroxyamide], the IC50 at MMP-13 came to 6 nM; at MMP-9 (read-out: MMP-9 IC50) it was 8 nM. At TACE (at 1 μM concentration), the inhibition at 1 µM came to 24%.

With `COc1ccc(S(=O)(=O)N(Cc2ccccc2)c2c(C(=O)NO)cnc3ccc(C(F)(F)F)cc23)cc1` [Example 15, 4-[Benzyl-(4-methoxy-benzenesulfonyl)-amino]-6-trifluoromethyl-quinoline-3-carboxylic acid hydroxyamide], the IC50 on MMP-13 amounted to 12 nM; at MMP-9 (read-out: MMP-9 IC50), 25 nM. On TACE (at 1 μM concentration), the inhibition at 1 µM worked out at 7%.

Turning to `COc1ccc(S(=O)(=O)N(Cc2ccccc2)c2c(C(=O)NO)cnc3c(C)cccc23)cc1` [Example 18, 4-[Benzyl-(4-methoxybenzenesulfonyl)-amino]-8-methyl-quinoline-3-carboxylic acid hydroxyamide], the IC50 on MMP-13 was found to be 26 nM; against TACE, 627 nM.

For the compound `CCc1cccc2c(N(Cc3ccccc3)S(=O)(=O)c3ccc(OC)cc3)c(C(=O)NO)cnc12` [Example 19, 4-[Benzyl-(4-methoxybenzenesulfonyl)-amino]-8-ethyl-quinoline-3-carboxylic acid hydroxyamide], the IC50 against MMP-13 worked out at 4 nM; on MMP-9 (read-out: MMP-9 IC50) it was 2 nM; at TACE, 314 nM.

Consider `COc1ccc(S(=O)(=O)N(Cc2ccccc2)c2c(C(=O)NO)cnc3c(C(C)C)cccc23)cc1` [Example 20, 4-[Benzyl-(4-methoxybenzenesulfonyl)-amino]-8-(1-methylethyl)-quinoline-3-carboxylic acid hydroxyamide], for which the IC50 at MMP-13 came to 9 nM; on MMP-9 (read-out: MMP-9 IC50), 6 nM; at TACE it was 589 nM; at MMP-1, 344 nM.

Turning to `C=Cc1cccc2c(N(CC)S(=O)(=O)c3ccc(OC)cc3)c(C(=O)NO)cnc12` [Example 29, 4-[Ethyl-(4-methoxy-benzenesulfonyl)-amino]-8-vinyl-quinoline-3-carboxylic acid hydroxyamide], the IC50 stood at 4 nM against MMP-13, 5 nM on MMP-9 (read-out: MMP-9 IC50) and 200 nM at MMP-1.

`COc1ccc(S(=O)(=O)N(Cc2ccccc2)c2c(C(=O)NO)cnc3ccc([N+](=O)[O-])cc23)cc1` [Example 30, 4-[Benzyl-(4-methoxy-benzenesulfonyl)-amino]-6-nitro-quinoline-3-carboxylic acid hydroxyamide]: the IC50 at MMP-13 was determined as 467 nM; on MMP-9 (read-out: MMP-9 IC50), 11 nM; on TACE it was 47 nM; on MMP-1, 22 nM.

Consider `COc1ccc(S(=O)(=O)N(C)c2c(C(=O)NO)cnc3c(Br)cccc23)cc1` [Example 31, 4-[Methyl-(4-methoxy-benzenesulfonyl)-amino]-8-bromo-quinoline-3-carboxylic acid hydroxyamide], for which the figures for the IC50 at MMP-13, against TACE and at MMP-1 were 2 nM, 80 nM and 225 nM, respectively.

Take `CN(c1c(C(=O)NO)cnc2ccc(I)cc12)S(=O)(=O)c1ccc(Oc2ccncc2)cc1` [Example 32, 4-{Methyl-[4-(pyridin-4-yloxy)-benzenesulfonyl]-amino}-6-iodo-quinoline-3-carboxylic acid hydroxyamide]: the half-inhibitory concentration (IC50) stood at 1 nM against MMP-13, 1 nM on MMP-9 (read-out: MMP-9 IC50), 24 nM against TACE and 456 nM on MMP-1.

Regarding `CCN(c1c(C(=O)NO)cnc2ccc(C#Cc3ccccc3)cc12)S(=O)(=O)c1ccc(OC)cc1` [Example 34, 4-[Ethyl-(4-methoxy-benzenesulfonyl)-amino]-6-phenylethynyl-quinoline-3-carboxylic acid hydroxyamide], the IC50 against MMP-13 was 12 nM; on MMP-9 (read-out: MMP-9 IC50), 9 nM; on TACE, 20 nM; against MMP-1, 301 nM.

Take `COc1ccc(S(=O)(=O)N(Cc2cccnc2)c2c(C(=O)NO)cnc3c(Br)cccc23)cc1` [Example 37, 4-[(4-Methoxy-benzenesulfonyl)-pyridin-3-ylmethyl-amino]-8-bromo-quinoline-3-carboxylic acid hydroxyamide]: the IC50 stood at 1 nM against MMP-13, 2 nM on MMP-9 (read-out: MMP-9 IC50), 124 nM against TACE and 65 nM against MMP-1.

With `COc1ccc(S(=O)(=O)N(Cc2cccnc2)c2c(C(=O)NO)cnc3c(Cc4ccccc4)cccc23)cc1` [Example 38, 4-[(4-methoxy-benzenesulfonyl)-pyridin-3-ylmethylamino]-8-Benzyl-quinoline-3-carboxylic acid hydroxyamide], the IC50 against MMP-13 was 3 nM; on MMP-9 (read-out: MMP-9 IC50) it was 4 nM; at TACE it was 336 nM; on MMP-1 it was 100 nM.

`COc1ccc(S(=O)(=O)N(Cc2cccnc2)c2c(C(=O)NO)cnc3c(I)cccc23)cc1` [Example 39, 4-[(4-Methoxy-benzenesulfonyl)-pyridin-3-ylmethyl-amino]-8-iodo-quinoline-3-carboxylic acid hydroxyamide]: the IC50 stood at 2 nM on MMP-13, 2 nM on MMP-9 (read-out: MMP-9 IC50) and 53 nM against TACE.

With `COc1ccc(S(=O)(=O)N(Cc2cccnc2)c2c(C(=O)NO)cnc3c(-c4ccccc4)cccc23)cc1` [Example 40, 4-[(4-Methoxy-benzenesulfonyl)-pyridin-3-ylmethyl-amino]-8-phenyl-quinoline-3-carboxylic acid hydroxyamide], the IC50 at MMP-13 is 4 nM; at MMP-9 (read-out: MMP-9 IC50) it was 3 nM; against TACE it was 120 nM; against MMP-1, 151 nM.

With `O=C(NO)c1cnc2cc(C(F)(F)F)ccc2c1N(Cc1cccnc1)S(=O)(=O)c1ccc(-c2ccccc2)cc1` [Example 42, 4-[(Biphenyl-4-sulfonyl)-pyridin-3-ylmethyl-amino]-7-trifluoromethyl-quinoline-3-carboxylic acid hydroxyamide], the IC50 on MMP-9 (read-out: MMP-9 IC50) worked out at 874 nM; on MMP-1 it was 5200 nM.

For the compound `COc1ccc(S(=O)(=O)N(Cc2cccnc2)c2c(C(=O)NO)cnc3c2cnn3-c2ccccc2)cc1` [Example 63, 4-[(4-Methoxybenzenesulfonyl)pyridin-3-ylmethylamino]-1-phenyl-1H-pyrazolo[3,4-b]pyridine-5-carboxylic acid, hydroxyamide], the IC50 was 23 nM at MMP-13, 6.8 nM at MMP-9 (read-out: MMP-9 IC50) and 721 nM at MMP-1.

As for `COc1ccc(S(=O)(=O)N(Cc2cccnc2)c2c(C(=O)NO)cnc3c2cnn3-c2ccccc2)cc1` [Example 64, 4-[(4-Methoxybenzenesulfonyl)pyridin-3-ylmethylamino]-1-phenyl-1H-pyrazolo[3,4-b]pyridine-5-carboxylic acid, hydroxyamide, hydrochloride], the figures for the IC50 against MMP-13, at MMP-9 (read-out: MMP-9 IC50) and on MMP-1 were 19 nM, 5.5 nM and 913 nM, respectively.

`COc1ccc(S(=O)(=O)N(Cc2cccnc2)c2c(C(=O)NO)cnc3c2c(C)nn3-c2ccccc2)cc1` [Example 67, 4-[(4-Methoxybenzenesulfonyl)pyridin-3-ylmethylamino]-1phenyl-3-methyl-1H-pyrazolo[3,4-b]pyridine-5-carboxylic acid, hydroxyamide] displayed an IC50 on MMP-1 of 96 nM.

Take `COc1ccc(S(=O)(=O)N(Cc2cccnc2)c2c(C(=O)NO)cnc3snc(C)c23)cc1` [Example 86, 4-[(4-Methoxybenzenesulfonyl)pyridin-3-ylmethylamino]-3-methylisothiazolo[5,4-b]pyridine-5-carboxylic Acid, Hydroxyamide]: the concentration for half-maximal inhibition (IC50) on MMP-9 (read-out: MMP-9 IC50) is 6.9 nM; at MMP-1, 131 nM.

Values taken from patent US6534491B2, “Preparation and use of ortho-sulfonamido bicyclic heteroaryl hydroxamic acids as matrix metalloproteinase and tace inhibitors” (priority 1996, dated 2003).
